Literature values in US9854827B2, “Sweetener” (Tate & Lyle Ingredients Americas LLC, priority 2013, dated 2018).

Conditions: % of the sweetness of sucrose

## O=C(CO)C(O)C(O)C(O)CO (stereo not shown) [Allulose, allulose]
  sweetness relative to sucrose: around 70%
